Test: gradient 5% acetonitrile 3 min, to 50% in 2 min, to 85% in 15 min, held 3 min, 100 µL/min
Conditions: column: Zorbax Extend-C18 2.1 x 50 mm; eluents: water / acetonitrile, 0.1% formic acid
Procedure, shortened: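 In both positive and negative ionization mode, a quadrupole time-of-flight mass spectrometer coupled to HPLC analyzed pure standards run in mixtures of ~100 molecules. The Zorbax Extend-C18 column (2.1 × 50 mm, 1.8 μm) was operated at 100 μL/min with water and acetonitrile, each containing 0.1% formic acid. The dead volume was 40 μL and the dwell volume 900 μL. Retention time came from adduct peaks that were computationally picked and individually inspected by hand.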

Compound	RP-LC retention time
CCCOc1ccc(C(=O)Nc2nnc(SCc3nnc(-c4ccccc4)o3)s2)cc1	1050 s
CC1=C(C(=O)OCCCc2ccccc2)C(c2cccs2)NC(=O)N1 (stereo not given)	882 s
CCc1ccc(C(C)NS(=O)(=O)c2cc3c(s2)CCN(C(=O)C2CCC2)C3)cc1 (stereo not given)	1020 s
CCn1c(=O)sc2cc(S(=O)(=O)N3CCC(C(=O)Nc4ccc(Cl)cc4C)CC3)ccc21	980 s
COCCCn1cnc2c(-c3ccccc3)cn(CC(=O)NCc3ccc4c(c3)OCO4)c2c1=O	855 s
COC(=O)c1ccc(OC)c(Cn2cnc3c(-c4ccccc4)csc3c2=O)c1	988 s
Cc1ccc(NS(=O)(=O)c2cc(-c3nc(C(C)C)cs3)cs2)c(Br)c1	1220 s
COc1ccc(C(=O)N(CN2CCCC2=O)c2nccs2)cc1OC	647 s
CC1CCN(S(=O)(=O)c2ccc(-c3nnc(C(=O)NCCc4cccs4)o3)cc2)CC1	1060 s
CC1CCN(S(=O)(=O)c2ccc3nc(N4CCN(c5ccc(F)cc5)CC4)ccc3c2)CC1	1190 s
CCc1cccc(N2C=NS(=O)(=O)c3cccnc32)c1	836 s
O=C(c1ccsc1)N1CCCC(OCc2nc(C3CC3)no2)C1 (stereo not given)	766 s
Cn1c(=O)c2c(nc3n(-c4ccc(O)cc4)c(-c4ccc(Cl)cc4)cn23)n(C)c1=O	813 s
COc1ccc(N2C(=O)CC(N3CCC(C)CC3)C2=O)cc1 (stereo not given)	579 s
COC(=O)c1c(-c2cccc(Cl)c2)noc1NCc1ccccn1	897 s
CCc1noc(NC(C)=O)c1-c1ccc(OC)c(S(=O)(=O)Nc2cccc(OC)c2)c1	754 s
CCC(C)C(NC(=O)CCc1ccccc1OC)C(=O)Nc1nc2ccccc2[nH]1 (stereo not given)	783 s
COc1cccc(-c2ccc(=O)n(Cc3nc(-c4ccccc4Cl)no3)n2)c1	931 s
NC(=O)c1nnn(Cc2cccc([N+](=O)[O-])c2)c1N	616 s
COc1ccc(CN2CC[C@]3(CO)CN(Cc4ccccc4)C[C@@H]3C2)c(Cl)c1OC	579 s
COc1ccc(N2C(=O)C3N=NN(Cc4nc(-c5ccc(C)cc5)no4)C3C2=O)cc1 (stereo not given)	992 s
COc1ccc(N2CC(c3nc(-c4cc(OC)c(OC)c(OC)c4)no3)CC2=O)cc1Cl (stereo not given)	905 s
COCCNCc1c(C(=O)O)c(C)n(Cc2cccc(Cl)c2)c1C	679 s

Compound	RP-LC retention time
CCC(C)NC(=O)Cc1cccn1-c1ccc(F)cc1 (stereo not given)	856 s
CC(=O)Nc1ccc(CC(=O)O)cc1	620 s
CCN1CCN(C(=O)CN2C(=O)C3CCCCN3c3ccc(S(=O)(=O)N(C)C)cc32)CC1 (stereo not given)	620 s
CC(C)=C1SC(N2CCN(c3cccc(C(F)(F)F)c3)CC2)=NC1=O	922 s
O=C1NC(C(=O)NCCCn2cccn2)Cn2cccc21 (stereo not given)	585 s
O=C(CN1C(=O)C(C(=O)N2CCCCCC2)Sc2ccccc21)N1CCN(c2ccccn2)CC1 (stereo not given)	650 s
CCCNC(=O)Nc1ccc(NC(=O)N2CCCC(C(=O)NC3CCCCC3)C2)cc1 (stereo not given)	702 s
CCN1CCCCc2cc(C(=O)NCC3CCN(CC(C)C)C3)sc21 (stereo not given)	718 s
CC(C)S(=O)(=O)c1cc2c(cc1NC(=O)c1ccc(Br)cc1)n(C)c(=O)n2C	951 s
CC1CCN(C(=O)c2nc(CCS(=O)(=O)c3ccc(Cl)cc3)no2)CC1	974 s
CC1(CNC(=O)Cc2c[nH]c3ccccc23)CCOCC1	668 s
CC(C)Cn1ccc2c(cc(C(=O)NCc3cccc(Br)c3)n2C)c1=O	901 s
Cc1nc(CCNC(=O)[C@H]2CCCN2C(=O)c2ccccc2Cl)cs1	659 s
COc1ncc(C(=O)NCc2ccc(SC)cc2)cn1	747 s
CO[C@H]1C(=O)N(C(C)C)[C@H]1C1CCN(C(=O)c2cnn(C)c2)CC1	612 s
O=C(Nc1ccccc1)N1CCC(n2c(-c3ccco3)nc3cccnc32)C1 (stereo not given)	716 s
O=C(Nc1cnc(N2CCCC2)nc1)c1cccc(Br)c1	796 s
CCC(=O)N1CCN(c2nc3c(s2)CC(C(=O)NCC(C)C)CC3)CC1 (stereo not given)	534 s
COC(=O)c1cc(S(=O)(=O)N2CCCC2C(=O)Nc2ccc(F)cc2F)cn1C (stereo not given)	875 s
CCCC(=O)N1CCc2c([nH]c3ccccc23)C1c1ccc(F)cc1 (stereo not given)	698 s
COc1c(C(=O)NCCN2CCCCC2C)sc2cc(Cl)ccc12 (stereo not given)	710 s
Cc1ccc(Nc2cc(N3CCC(C(=O)NCc4ccco4)CC3)ncn2)cc1	664 s
CCCN(CCC)C(=O)Cn1c(C2CCCN2C(=O)CC)nc2ccccc21 (stereo not given)	660 s

Compound	RP-LC retention time
COCCn1cc2c3c(cccc31)CN(C(=O)Nc1ccccc1C(F)(F)F)CC2	981 s
O=C(c1ccc(-c2ccsc2)nc1)N1CCCCCC1	841 s
CCn1cc(C(=O)NCc2ccc(C)cc2)c2cccnc21	811 s
Oc1c(CN2CCN(c3ccccc3)CC2)cc(Br)c2cccnc12	830 s
Cc1ccccc1CNc1nnc(-c2nc(C3CC3)no2)c2ccccc12	936 s
CCOc1ccc(C(=O)N2CCCC(c3nnc(-c4ccccc4)o3)C2)cc1 (stereo not given)	892 s
CCn1nccc1C(=O)NC1CCN(C2=NS(=O)(=O)C(c3ccc(F)cc3)=C2C)CC1	788 s
CCOc1ccc(C2c3[nH]c4ccccc4c3CCN2C(=O)c2ccncc2)cc1 (stereo not given)	948 s
N#Cc1cccc(S(=O)(=O)NC2CCc3nn(CC4CC4)c(=O)n3CC2)c1 (stereo not given)	706 s
CCOCCCNC(=O)C1CCN(C2=NS(=O)(=O)C(c3ccc(Cl)cc3)=C2C)CC1	780 s
O=C(NC1CCCCC1)N1CCc2nc(-c3ccc(Cl)cc3)ncc2C1	1050 s
CCC1CN(C(=O)N2CCC(C(=O)NCCCN3CCCCC3)CC2)c2ccccc2O1 (stereo not given)	643 s
O=C(NC1CCCCC1)C1c2ccccc2C(=O)N1Cc1ccc2c(c1)OCO2 (stereo not given)	860 s
COC(=O)C1=CN(c2cccc(C#N)c2)c2ccc(F)cc2S1(=O)=O	787 s
CCN(CC)c1ccc(C2C(C#N)=C(N)Oc3n[nH]c(C)c32)cc1 (stereo not given)	546 s
Cc1ccc(S(=O)(=O)NC2CCN(c3ccccc3)C2=O)cc1 (stereo not given)	876 s
CCc1ccc(S(=O)(=O)NCc2c(-c3ccccc3)nc3sc(C)nn23)cc1	943 s
Cc1cccc(-n2cc(C(=O)OCC(=O)OC(C)C)c3ccccc3c2=O)c1	1130 s
CCN1CCN(C(=O)c2cn(-c3cc(N4CCSCC4)ncn3)cn2)CC1	605 s
COc1ccc(-c2nc3cccc(C)n3c2Nc2ccc3c(c2)OCCO3)cc1	987 s
CCc1ccc(NC(=O)Cn2nc3n(c2=O)CCCC3)cc1	669 s
Cc1cn(C)nc1C(=O)Nc1nnc(-c2ccco2)o1	622 s
CC(C)CCNC(=O)C1CCCN(c2nc3ccsc3c(=O)n2Cc2ccc(F)cc2)C1 (stereo not given)	954 s

Compound	RP-LC retention time
COc1ccc(CN2CCc3nc(N4CCN(c5ccccc5F)CC4)ncc3C2)cc1	773 s
C/C=C/c1ccc(OCC(O)CN2CCN(C)CC2)c(OC)c1 (stereo not given)	560 s
Cn1nccc1-c1cccc(-c2noc(-c3ccccc3)n2)c1	1120 s
CCOC(=O)c1cnc2c(-c3ccc(F)cc3)c(C)nn2c1N	1020 s
Cn1c(=O)c2ccn(CC(=O)NCCCc3ccccc3)c2n(C)c1=O	699 s
Cc1ccc(-c2csc3c(=O)n(Cc4cc(=O)n5ccccc5n4)cnc23)cc1	847 s
Cc1ccc(NC(=O)CN2C(=O)C3CCCCN3c3ccc(S(=O)(=O)N4CCCCC4)cc32)cc1 (stereo not given)	987 s
Cc1ccc(NC(=O)C2CCN(C(=O)c3ncn4c3COC(c3ccc(F)cc3)C4)CC2)cc1Cl (stereo not given)	901 s
Cc1nc2c(c(=O)n1CC(=O)NC1CCCC1)CCN(Cc1ccccc1)C2	602 s
Cc1nn(-c2ccc(F)cc2)c2nc(N3CCCC(C(=O)NCc4ccccc4Cl)C3)sc12 (stereo not given)	1190 s
O=C(C1=NN(c2ccc(F)cc2)c2ccc(F)cc2S1(=O)=O)N1CCOCC1	829 s
O=C(Cc1ccc(F)cc1)Nc1cc(-c2cccnc2)no1	730 s
COc1ccc(CN2C[C@@H]3C(=O)N(C)C(=O)[C@@H]3C2)cc1OC	566 s
COc1ccc(C(O)Cn2ccn3nc(-c4ccc(C(C)C)cc4)cc3c2=O)cc1 (stereo not given)	1060 s
CCOc1ccc(NC(=O)Cn2c(=O)c(CCC(=O)NCC(C)C)nc3ccccc32)cc1	824 s
CC1(C(=O)NCc2ccc(F)cc2)CN(S(C)(=O)=O)CC(=O)N1Cc1ccc(F)cc1 (stereo not given)	841 s
Cc1ccc(C)c(NC(=O)c2cn(-c3cc(-c4nc(C5CC5)no4)ccn3)cn2)c1	1100 s
CCN(CC)C(=O)c1ccc2c(c1)N(CC(=O)N1CCCC1)C(=O)C1CCCCN21 (stereo not given)	753 s
Cc1ccc(S(=O)(=O)N2CC3CN(C(=O)C4COc5ccccc5O4)CC(C2)O3)cc1 (stereo not given)	928 s
Cc1cccc(Oc2nccnc2N2CCC(C(=O)NC(C)c3ccc(C)cc3C)CC2)c1 (stereo not given)	1150 s
CC(C)c1nnc(-c2coc(S(=O)(=O)N3CCCCC3C)c2)o1 (stereo not given)	904 s
